Measurements reported in the NIST ThermoML archive (doi:10.1016/j.tca.2012.01.013).

What was measured:
[1] = xn = mol fraction of the nth substance listed; conditions: 101 kPa, Liquid, Vibrating tube method
[2] = refractive index (Na D-line) (dimensionless); xn = mol fraction of the nth substance listed; conditions: 101 kPa, Liquid, Standard Abbe refractometry

COC(=O)CCCCC(=O)OC [dimethyl 1,6-hexanedioate] + CCC(C)O
Conditions | mass density, [1] [kg/m3] | refractive index, [2]
288.15 K, x1 = 0.1 | 851.006 | 1.40371
288.15 K, x1 = 0.2001 | 886.929 | 1.40787
288.15 K, x1 = 0.3 | 918.373 | 1.41161
288.15 K, x1 = 0.4 | 946.216 | 1.41507
288.15 K, x1 = 0.5003 | 971.377 | 1.41815
288.15 K, x1 = 0.6 | 994.171 | 1.42105
288.15 K, x1 = 0.6999 | 1014.77 | 1.42368
288.15 K, x1 = 0.8005 | 1033.71 | 1.42612
288.15 K, x1 = 0.8999 | 1050.86 | 1.42837
288.15 K, x1 = 1 | 1066.79 | 1.4305
293.15 K, x1 = 0.1 | 846.719 | 1.40153
293.15 K, x1 = 0.2001 | 882.468 | 1.4057
293.15 K, x1 = 0.3 | 913.786 | 1.40945
293.15 K, x1 = 0.4 | 941.538 | 1.4129
293.15 K, x1 = 0.5003 | 966.636 | 1.41602
293.15 K, x1 = 0.6 | 989.387 | 1.41891
293.15 K, x1 = 0.6999 | 1009.96 | 1.42156
293.15 K, x1 = 0.8005 | 1028.88 | 1.42403
293.15 K, x1 = 0.8999 | 1046.01 | 1.42628
293.15 K, x1 = 1 | 1061.93 | 1.42842
298.15 K, x1 = 0.1 | 842.377 | 1.39933
298.15 K, x1 = 0.2001 | 877.96 | 1.40348
298.15 K, x1 = 0.3 | 909.164 | 1.40724
298.15 K, x1 = 0.4 | 936.838 | 1.41071
298.15 K, x1 = 0.5003 | 961.876 | 1.41385
298.15 K, x1 = 0.6 | 984.59 | 1.41676
298.15 K, x1 = 0.6999 | 1005.13 | 1.41943
298.15 K, x1 = 0.8005 | 1024.03 | 1.42191
298.15 K, x1 = 0.8999 | 1041.15 | 1.4242
298.15 K, x1 = 1 | 1057.06 | 1.42636
303.15 K, x1 = 0.1 | 837.975 | 1.39709
303.15 K, x1 = 0.2001 | 873.411 | 1.40124
303.15 K, x1 = 0.3 | 904.511 | 1.405
303.15 K, x1 = 0.4 | 932.113 | 1.40851
303.15 K, x1 = 0.5003 | 957.1 | 1.41165
303.15 K, x1 = 0.6 | 979.781 | 1.4146
303.15 K, x1 = 0.6999 | 1000.3 | 1.4173
303.15 K, x1 = 0.8005 | 1019.19 | 1.41981
303.15 K, x1 = 0.8999 | 1036.29 | 1.42211
303.15 K, x1 = 1 | 1052.18 | 1.42429
308.15 K, x1 = 0.1 | 833.506 | 1.39479
308.15 K, x1 = 0.2001 | 868.81 | 1.39899
308.15 K, x1 = 0.3 | 899.82 | 1.40278
308.15 K, x1 = 0.4 | 927.355 | 1.4063
308.15 K, x1 = 0.5003 | 952.301 | 1.40948
308.15 K, x1 = 0.6 | 974.955 | 1.41244
308.15 K, x1 = 0.6999 | 995.457 | 1.41515
308.15 K, x1 = 0.8005 | 1014.33 | 1.4177
308.15 K, x1 = 0.8999 | 1031.43 | 1.42004
308.15 K, x1 = 1 | 1047.31 | 1.42222
313.15 K, x1 = 0.1 | 828.965 | 1.39245
313.15 K, x1 = 0.2001 | 864.16 | 1.39669
313.15 K, x1 = 0.3 | 895.087 | 1.40049
313.15 K, x1 = 0.4 | 922.569 | 1.40404
313.15 K, x1 = 0.5003 | 947.474 | 1.40726
313.15 K, x1 = 0.6 | 970.109 | 1.41026
313.15 K, x1 = 0.6999 | 990.598 | 1.41301
313.15 K, x1 = 0.8005 | 1009.47 | 1.41557
313.15 K, x1 = 0.8999 | 1026.55 | 1.41795
313.15 K, x1 = 1 | 1042.43 | 1.42017
318.15 K, x1 = 0.1 | 824.35 | 1.39013
318.15 K, x1 = 0.2001 | 859.451 | 1.39438
318.15 K, x1 = 0.3 | 890.312 | 1.39825
318.15 K, x1 = 0.4 | 917.75 | 1.4018
318.15 K, x1 = 0.5003 | 942.626 | 1.40503
318.15 K, x1 = 0.6 | 965.245 | 1.40808
318.15 K, x1 = 0.6999 | 985.726 | 1.41088
318.15 K, x1 = 0.8005 | 1004.59 | 1.41348
318.15 K, x1 = 0.8999 | 1021.67 | 1.41588
318.15 K, x1 = 1 | 1037.54 | 1.41819
323.15 K, x1 = 0.1 | 819.659 | 1.38776
323.15 K, x1 = 0.2001 | 854.686 | 1.39207
323.15 K, x1 = 0.3 | 885.493 | 1.39597
323.15 K, x1 = 0.4 | 912.894 | 1.39955
323.15 K, x1 = 0.5003 | 937.752 | 1.40283
323.15 K, x1 = 0.6 | 960.363 | 1.40592
323.15 K, x1 = 0.6999 | 980.838 | 1.40875
323.15 K, x1 = 0.8005 | 999.701 | 1.41138
323.15 K, x1 = 0.8999 | 1016.78 | 1.41382
323.15 K, x1 = 1 | 1032.64 | 1.41614
